Data as given in US20080125663A1, “Pre-And Intra-Operative Imaging of Testicular Torsion” (University of Rochester Medical Center, priority 2006, published 2008).
Entries after “also recorded” stand apart in the source; their conditions may differ.

Columns and labels:
[1] = test system: mammals; details: cited from earlier work; for neuronal toxicity: used in mammals
[2] = cited from earlier work
[3] = test system: testes of a rat; test: Near IR fluorescence imaging of testicular perfusion after unilateral interruption of blood flow to the right testis; format: in vivo
Procedure: Intraoperative video angiography is performed with a laser-fluorescence imaging device (Novadaq Technologies, Inc., Toronto, Canada) consisting of a near infrared (NIR) laser light source and a NIR-sensitive digital camcorder. For measurements, the unit is positioned 30 to 40 cm from the area of interest. ICG, dissolved in water, is then injected as a bolus. When ICG is used as the imaging dye, NIR light emitted by the laser light source induces ICG fluorescence. The fluorescence is typically imaged by a video camera, with optical filtering to block ambient and laser light so that only ICG fluorescence is captured. […] Two rats were subjected to unilateral interruption of blood flow to the right testis. In rat A, a bulldog clamp was used, in rat B, a mosquito clamp (a smaller clamp designed to cut off blood flow in small blood vessels) was used. ICG was administered by IV to each rat to determine the ability to visualize the degree to which the testicle underwent hypoperfusion or lack of perfusion. Prior to administration of ICG, rat A was first subjected to near IR and imaged. […] 0.5 ml of ICG at a concentration of 2.5 mg/ml was then administered by IV. The right spermatic cord was clamped with a bulldog clamp to create vascular obstruction and the testicles were imaged.

[4] = bulldog clamp, 0.5 ml of 2.5 mg/ml ICG IV, imaged through the scrotum

Compound	neuronal toxicity [1]	distribution ([2]; after intravenous injection, with normal vascular permeability)	time to binding, mainly to globulins (1-lipoproteins) ([2]; after intravenous injection)	enterohepatic recirculation ([2]; in vivo)	excretion ([2]; in vivo)	metabolism in the body ([2]; in vivo)	reabsorption from the intestine ([2]; in vivo)	toxicity ([1]; in vivo)	fluorescence of the right testicle after removal of the clamp (reperfusion) ([3]; bulldog clamp removed from the spermatic cord)	fluorescence of the right testicle during clamp obstruction of the right spermatic cord ([3]; bulldog clamp, 0.5 ml of 2.5 mg/ml ICG IV, exposed testes)	fluorescence of the left hemiscrotum (unclamped side) [3, 4]	fluorescence of the right hemiscrotum (clamped side) [3, 4]	differential perfusion seen after occlusion ([3]; mosquito (vascular) clamp, ICG IV)
N=C(N)c1ccc(/C=C/c2ccc(C(=N)N)cc2O)cc1 [Fluorogold]	low evidence of neuronal toxicity												
Fast Blue	low evidence of neuronal toxicity												
CC1(C)C(/C=C/C=C/C=C/C=C2\N(CCCCS(=O)(=O)O)c3ccc4ccccc4c3C2(C)C)=[N+](CCCCS(=O)(=O)[O-])c2ccc3ccccc3c21 [ICG, indocyanine green]	low evidence of neuronal toxicity	remains intravascular	1 to 2 s	does not undergo enterohepatic recirculation	excreted exclusively by the liver	not metabolized	not reabsorbed from the intestine	low toxicity	restoration of fluorescence; also recorded: Fluoresence of the right testicle was observed	absence of fluorescence	intense fluorescence	low fluorescence	obvious differential perfusion
